In the CombiSolv-Exp solvation set (Vermeire and Green 2021):

Assay: solvent given as SMILES

ClC(Cl)(Cl)Cl
Conditions | solvation free energy, 298 K [kcal/mol]
in Brc1cccc2ccccc12 | -3.92
in C1CCCC1 | -4.4
in C1CCOC1 | -4.65
in C1COCCO1 | -4.32
in C=CCCCCCCCCCCCCCC | -3.81
in CC#N | -3.66
in CC(=O)CC(C)C | -4.22
in CC(=O)N(C)C | -4.52
in CC(=O)OCc1ccccc1 | -3.97
in CC(C)(C)O | -3.74
in CC(C)=O | -4.15
in CC(C)CCCC(C)CCCC(C)CCCCC(C)CCCC(C)CCCC(C)C | -3.74
in CCC(C)=O | -4.15
in CCCCCC | -4.14
in CCCCCCC | -4.09
in CCCCCCCC | -3.98
in CCCCCCCCC=CCCCCCCCC(=O)OCC(COC(=O)CCCCCCCC=CCCCCCCCC)OC(=O)CCCCCCCC=CCCCCCCCC | -4
in CCCCCCCCCCCCCC | -3.8
in CCCCCCCCCCCCCCCC | -3.85
in CCCCCCCCCOC(=O)c1ccccc1C(=O)OCCCCCCCCC | -3.85
in CCCCCCCCN(CCCCCCCC)CCCCCCCC | -3.79
in CCCCCCCCO | -3.79
in CCCCCCO | -3.84
in CCCCCN(CCCCC)CCCCC | -3.96
in CCCCCl | -4.28
in CCCCN(C=O)CCCC | -4.11
in CCCCN(CCCC)CCCC | -3.84
in CCCCO | -3.87
in CCCCOC | -4.39
in CCCCOC(C)=O | -4.26
in CCCCOCC | -4.29
in CCCCOCCCC | -4.16
in CCCO | -3.75
in CCCOCCC | -4.25
in CCO | -3.74
in CCOC(=O)c1ccccc1C(=O)OCC | -3.77
in CCOC(C)=O | -4.23
in CCOCC | -4.41
in CI | -4.51
in CN1CCCC1=O | -4.16
in CNC(C)=O | -3.9
in CO | -3.66
in CS(C)=O | -3.66
in CSC | -4.63
in Cc1ccc(C)cc1 | -4.35
in Cc1cccc(C)c1 | -4.29
in Cc1ccccc1C | -4.34
in ClC(Cl)Cl | -4.43
in ClCCCl | -4.15
in NC=O | -2.16
in O | 0.07
in O=C1CCCCC1 | -4.32
in S=C=S | -4.52
in [2H]O[2H] | -0.62
in c1ccc2ncccc2c1 | -4.07

O=C(O)c1ccc([N+](=O)[O-])cc1
Conditions | solvation free energy, 298 K [kcal/mol]
in C1CCOC1 | -13.3
in C1COCCO1 | -13.1
in CC(C)(C)O | -12.4
in CC(C)CCO | -11.9
in CC(C)CO | -11.9
in CC(C)O | -12.2
in CC(C)OC(C)C | -11.3
in CC(C)OCCO | -12.6
in CC(O)COC(C)(C)C | -12.6
in CCC(C)O | -12.1
in CCCC(C)O | -12
in CCCCCCCCCCO | -11.7
in CCCCCCCCO | -11.8
in CCCCCCCO | -11.9
in CCCCCCO | -12
in CCCCCO | -12
in CCCCCOC(C)=O | -11.7
in CCCCO | -12
in CCCCOC(C)=O | -11.9
in CCCCOCCO | -12.5
in CCCO | -12.2
in CCCOCCO | -12.6
in CCO | -12.3
in CCOC(C)=O | -12.2
in CCOCC | -12.2
in CCOCCO | -12.8
in CN(C)C=O | -12.8
in CO | -12.5
in COC(C)=O | -12.4
in COC(C)CCO | -12.6
in O | -9.44

FC(F)(F)C(F)(F)C(F)(F)C(F)(F)C(F)(F)C(F)(F)C(F)(F)F
Conditions | solvation free energy, 298 K [kcal/mol]
in CCCCCCC | -2.35
in CCCCO | -1.29
in CCCO | -1.24
in S=C=S | -0.45

Clc1ccc(-c2cc(Cl)c(Cl)c(Cl)c2Cl)cc1
Conditions | solvation free energy, 298 K [kcal/mol]
in CCCCCCCCO | -12.8

CCCCCCCCCCCCCCCCCCCCCCCCCC
Conditions | solvation free energy, 298 K [kcal/mol]
in CC(=O)N(C)C | -17.6
in CC(C)(C)O | -15.8
in CN(C)C=O | -17.8
in O | 5.59

c1ccc2c(c1)sc1ccccc12
Conditions | solvation free energy, 298 K [kcal/mol]
in CC(=O)N(C)C | -11.5
in CCCCCCCCC=CCCCCCCCC(=O)OCC(COC(=O)CCCCCCCC=CCCCCCCCC)OC(=O)CCCCCCCC=CCCCCCCCC | -10.6
in CN1CCCC1=O | -11.6
in O | -4.05
